Measurements taken from patent US7820623B2 (priority 2006, dated 2010).
Bridge positions count the residues as written; N and C are the ends. Square brackets hold non-standard residues; d marks the D form. Peptide text beside a SMILES is read from it. 1Nal = N[C@@H](Cc1cccc2ccccc12)C(=O)O

Experiments:
[1] = tested on: thapsigargin-induced IFN-g production in human whole blood; type: cell-based; conditions: for IC50: read-out: Analogue Activity (IC50) WB/IFNg
[2] = molecular target: T1, human Kv1.3 (CHO) (Homo sapiens, UniProt P22001); assay: cell-based; type: cell-based
T1 construct: expressed in transfected cells
T1 sequence (P22001 whole entry): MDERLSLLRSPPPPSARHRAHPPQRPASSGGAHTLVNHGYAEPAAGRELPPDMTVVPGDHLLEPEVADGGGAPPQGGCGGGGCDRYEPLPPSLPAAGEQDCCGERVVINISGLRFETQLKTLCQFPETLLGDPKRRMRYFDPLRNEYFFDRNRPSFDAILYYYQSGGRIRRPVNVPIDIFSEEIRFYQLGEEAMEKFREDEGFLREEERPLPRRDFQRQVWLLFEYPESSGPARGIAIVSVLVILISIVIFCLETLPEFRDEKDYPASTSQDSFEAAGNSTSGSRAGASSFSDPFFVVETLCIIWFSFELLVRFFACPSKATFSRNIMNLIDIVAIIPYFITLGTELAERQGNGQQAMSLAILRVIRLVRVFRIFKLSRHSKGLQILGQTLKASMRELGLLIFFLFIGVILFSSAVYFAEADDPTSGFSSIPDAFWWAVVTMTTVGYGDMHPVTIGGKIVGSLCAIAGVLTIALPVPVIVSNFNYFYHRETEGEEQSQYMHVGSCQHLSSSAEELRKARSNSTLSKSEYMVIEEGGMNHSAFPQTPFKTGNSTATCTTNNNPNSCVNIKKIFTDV

[3] = tested on: thapsigargin-induced IL-2 production in human whole blood; conditions: for IC50: read-out: Analogue Activity (IC50) WB/IL-2
[4] = molecular target: T2, human Kv1.1 (HEK293) (Homo sapiens, UniProt Q09470); assay: cell-based
T2 construct: expressed in transfected cells; host or cells: HEK293
T2 sequence (Q09470 whole entry): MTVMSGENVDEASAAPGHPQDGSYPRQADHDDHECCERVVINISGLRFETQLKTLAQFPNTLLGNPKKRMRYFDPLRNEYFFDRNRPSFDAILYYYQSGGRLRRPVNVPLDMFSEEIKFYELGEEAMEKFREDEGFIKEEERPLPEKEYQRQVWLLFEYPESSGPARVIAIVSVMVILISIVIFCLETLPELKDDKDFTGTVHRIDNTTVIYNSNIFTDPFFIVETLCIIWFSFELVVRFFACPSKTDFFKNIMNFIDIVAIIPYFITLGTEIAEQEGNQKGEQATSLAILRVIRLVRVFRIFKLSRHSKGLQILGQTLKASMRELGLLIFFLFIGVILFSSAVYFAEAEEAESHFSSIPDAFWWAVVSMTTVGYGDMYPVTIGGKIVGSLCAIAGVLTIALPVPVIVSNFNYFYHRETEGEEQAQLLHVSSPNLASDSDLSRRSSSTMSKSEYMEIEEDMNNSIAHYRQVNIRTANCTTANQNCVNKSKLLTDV

[5] = molecular target: T3, human Kv1.1 (Homo sapiens, UniProt Q09470); type: cell-based
T3 construct: expressed in transfected cells; host or cells: HEK293
T3 sequence (Q09470 whole entry): as above

[6] = molecular target: human Kv1.3 (Homo sapiens, UniProt P22001); assay: cell-based
Sequence of human Kv1.3 (P22001 whole entry): as the sequence (P22001 whole entry) above

[7] = molecular target: fixed HEK 293 cells stably transfected with human Kv1.3 (Homo sapiens, UniProt P22001); assay: Whole cell immunoassay (ELISA) on fixed HEK 293 cells overexpressing Kv1.3; type: binding
Sequence of fixed HEK 293 cells stably transfected with human Kv1.3 (P22001 whole entry): as above
Method: Our peptibody reagent can be a useful and convenient tool for monitoring Kv1.3 channel expression in patients and have utility in diagnostic applications. The procedure shown in FIG. 34A and FIG. 34B follows.
FIG. 34A. A whole cell immunoassay was performed to show binding of intact Fc-L10-ShK[1-35] to Kv1.3 transfected HEK 293 cells (BioFocus plc, Cambridge, UK). Parent HEK 293 cells or HEK Kv1.3 cells were plated at 3×10e4 cells/well in poly-D-Lysine coated ninety-six well plates (#35-4461; Becton-Dickinson, Bedford, Mass.). Cells were fixed with formalin (Sigma HT50-1-1 Formalin solution, diluted 1:1 with PBS/0.5% BSA before use) by removing cell growth medium, adding 0.2 ml/well formalin solution and incubating at room temperature for 25 minutes and then washing one time with 100 μl/well of PBS/0.5% BSA. Wells were blocked by addition of 0.3 ml/well of BSA blocker (50-61-00; KPL 10% BSA Diluent/Blocking Solution, diluted 1:1 with PBS; KPL, Gaithersburg, Md.) followed by incubation at room temperature, with shaking, for 3 hr. Plates were washed 2 times with 1×KP Wash Buffer (50-63-00; KPL). […] Absorbance was read at 450 nm on a Molecular Devices SpectroMax 340 (Sunnyvale, Calif.).
FIG. 34B. […] Absorbances were read at 405 nm after stopping reactions by addition of 0.1 ml/well of 1% SDS.

[8] = tested on: IL-2 production from PMA and αCD3 antibody stimulated human PBMCs; type: cell-based
[9] = tested on: IFNγ production from PMA and αCD3 antibody stimulated human PBMCs; type: cell-based
[10] = molecular target: HEK 293 cells overexpressing human Kv1.3 (Homo sapiens, UniProt P22001); assay: Immunohistochemistry of binding to HEK 293 cells overexpressing human Kv1.3; conditions: 5 μg/ml peptibody
Sequence of HEK 293 cells overexpressing human Kv1.3 (P22001 whole entry): as above
Method: Immunohistochemistry analysis of Fc-L10-ShK[1-35] binding to HEK 293 cells overexpressing human Kv1.3. HEK 293 cells overexpressing human Kv1.3 (HEK Kv1.3) were obtained from BioFocus plc (Cambridge, UK) and maintained per manufacturer's recommendation. The parental HEK 293 cell line was used as a control. Cells were plated on Poly-D-Lysine 24 well plates (#35-4414; Becton-Dickinson, Bedford, Mass.) and allowed to grow to approximately 70% confluence. HEK KV1.3 were plated at 0.5×10e5 cells/well in 1 ml/well of medium. HEK 293 cells were plated at a density of 1.5×10e5 cells/well in 1 ml/well of medium. Before staining, cells were fixed with formalin (Sigma HT50-1-1 Formalin solution, diluted 1:1 with PBS/0.5% BSA before use) by removing cell growth medium, adding 0.2 ml/well formalin solution and incubating at room temperature for ten minutes. Cells were stained by incubating with 0.2 ml/well of 5 μg/ml Fc-L10-ShK[1-35] in PBS/BSA for 30′ at room temperature. Fc-L10-ShK[1-35] was aspirated and then the cells were washed one time with PBS/0.5% BSA. Detection antibody (Goat F(ab)2 anti-human IgG-phycoerythrin; Southern Biotech Associates, Birmingham, Ala.) was added to the wells at 5 μg/ml in PBS/0.5% BSA and incubated for 30′ at room temperature. Wash cells once with PBS/0.5% BSA and examine using confocal microscopy (LSM 510 Meta Confocal Microscope; Carl Zeiss AG, Germany). […]

[11] = tested on: IL-2 production from αCD3 and αCD28 antibody stimulated human PBMCs; type: cell-based
[12] = tested on: IFNγ production from αCD3 and αCD28 antibody stimulated human PBMCs; type: cell-based
[13] = tested on: IL-2R on CD4+ T cells in human whole blood; type: cell-based
[14] = tested on: T cell proliferation in human PBMCs; assay: T cell proliferation (3H-thymidine incorporation) in anti-CD3/anti-CD28 stimulated human PBMCs; type: cell-based; conditions: two normal donors
Source text: Inhibition of T cell proliferation following anti-CD3 and anti-CD28 antibody stimulation of PBMCs. PBMC's were previously isolated from normal human donor Leukophoresis packs, purified by density gradient centrifugation (Ficoll Hypaque), cryopreserved in CPZ Cryopreservation Medium Complete (INCELL, MCPZF-100 plus 10% DMSO final). PBMC's were thawed (95% viability), washed, and seeded at 2×10^5 cells per well in culture medium (RPMI medium 1640; GIBCO) supplemented with 10% fetal calf serum, 100 U/ml penicillin, […] streptomycin, 2 mM L-glutamine, 100 μM non-essential amino acids, and 20 μM 2-ME) in 96-well flat-bottom tissue culture plates. Cells were pre-incubated with either anti-human CD32 (FcyRII) blocking antibody (per manufacturers instructions EASY SEP Human Biotin Selection Kit #18553, StemCell Technologies Vancouver, BC) or Fc-L10-ShK (100 nM-0.001 nM final) for 45 min. Fc-L10-ShK (100 nM-0.001 nM final) was then added to the cells containing anti-human CD32 blocking antibody while medium was added to the cells containing Fc-L10-ShK. Both sets were incubated for an additional 45 min before stimulating for 48 hr with aCD3/aCD28 (0.2 ng/ml and 100 ng/ml, respectively). Final assay volume was 200 ul. […] Cells were then harvested onto glass fiber filters and radioactivity was measured in a B-scintillation counter.

[15] = tested on: CD40L on CD4+ T cells in human whole blood; type: cell-based

CC[C@H](C)[C@@H]1NC(=O)[C@H](CCCCN)NC(=O)[C@@H](NC(=O)[C@H](CCCCN)NC(=O)[C@@H](NC(=O)[C@H](CC(N)=O)NC(=O)[C@@H](NC(=O)[C@@H](NC(=O)[C@@H](NC(=O)CN)C(C)C)[C@@H](C)CC)[C@@H](C)CC)C(C)C)CSSC[C@@H]2NC(=O)[C@H](CCCCN)NC(=O)CNC(=O)[C@H](Cc3ccccc3)NC(=O)[C@H](CCCNC(=N)N)NC(=O)[C@H](CCSC)NC(=O)CNC(=O)[C@H](C)NC(=O)[C@H](CCCCN)NC(=O)[C@H](CCCCN)NC(=O)[C@@H]3CSSC[C@@H](C(=O)N[C@H](C(=O)N4CCC[C@H]4C(=O)N[C@@H](CCCCN)C(=O)O)[C@@H](C)O)NC(=O)[C@H](Cc4c[nH]cn4)NC(=O)[C@H](CSSC[C@H](NC(=O)[C@H](CCC(N)=O)NC(=O)[C@H](CCCNC(=N)N)NC(=O)[C@H](CO)NC1=O)C(=O)N[C@@H](CC(C)C)C(=O)N[C@@H](CCC(=O)O)C(=O)N1CCC[C@H]1C(=O)N3)NC(=O)[C@H](Cc1cccc3ccccc13)NC(=O)CNC(=O)[C@H](CC(N)=O)NC(=O)[C@H](CCSC)NC2=O [K32Nal] (H-GVIINVKCKISRQCLEPCKKAGMRFGKCMNG[1Nal]CHCTPK-OH; disulfide 8-28, 14-33, 18-35)
IC50 [1]: 0.196 nM
IC50 [2]: 0.0261 nM
IC50 [3]: 0.134 nM
IC50 [4]: 0.00191 nM

CC[C@H](C)[C@@H]1NC(=O)[C@H](CCCCN)NC(=O)[C@@H](NC(=O)[C@H](CCCCN)NC(=O)[C@@H](NC(=O)[C@H](CC(N)=O)NC(=O)[C@@H](NC(=O)[C@@H](NC(=O)[C@@H](NC(=O)CN)C(C)C)[C@@H](C)CC)[C@@H](C)CC)C(C)C)CSSC[C@@H]2NC(=O)[C@H](CCCCN)NC(=O)CNC(=O)[C@H](Cc3ccccc3)NC(=O)[C@H](CCCNC(=N)N)NC(=O)[C@H](CCSC)NC(=O)CNC(=O)[C@H](C)NC(=O)[C@H](CCCCN)NC(=O)[C@H](CCCCN)NC(=O)[C@@H]3CSSC[C@@H](C(=O)N[C@H](C(=O)N4CCC[C@H]4C(=O)N[C@@H](CCCCN)C(=O)O)[C@@H](C)O)NC(=O)[C@H](Cc4c[nH]cn4)NC(=O)[C@H](CSSC[C@H](NC(=O)[C@H](CCC(N)=O)NC(=O)[C@H](Cc4cccc5ccccc45)NC(=O)[C@H](CO)NC1=O)C(=O)N[C@@H](CC(C)C)C(=O)N[C@@H](CCC(=O)O)C(=O)N1CCC[C@H]1C(=O)N3)NC(=O)[C@H](CCCCN)NC(=O)CNC(=O)[C@H](CC(N)=O)NC(=O)[C@H](CCSC)NC2=O [R12Nal] (H-GVIINVKCKIS[1Nal]QCLEPCKKAGMRFGKCMNGKCHCTPK-OH; disulfide 8-28, 14-33, 18-35)
IC50 [1]: 0.387 nM
IC50 [2]: 0.0377 nM
IC50 [3]: 0.46 nM
IC50 [4]: 0.025 nM

Fc-L10-OSK1[E16K,K20D]: Fc-L10-OSK1 with glutamic acid to lysine at 16 and lysine to aspartic acid at 20
blocking activity against Kv1.1 [5]: removed the blocking activity against Kv1.1

Fc-L10-OSK1[K7S,E16K,K20D]: Fc-L10-OSK1 with triple substitution K7S, E16K, K20D
IC50 ([5]; read-out: hKv1.1: IC50): 10 nM

Fc-L10-OSK1[K7S]: Fc-L10-OSK1 with lysine to serine at position 7
change in selectivity compared to Fc-L10-OSK1 [5]: 1.3 fold
change in Kv1.3 potency compared to Fc-L10-OSK1 [6]: 2 fold
fold less potent than the synthetic OSK1 toxin peptide (Kv1.3 IC50) [6]: approximately 10 fold
hKv1.1/hKv1.3 selectivity ratio [6]: 269
IC50 ([6]; read-out: IC50 for block of the outward potassium current): 0.372 ± 0.071 nM

Fc-L10-ShK[1-35]: Fc region of human IgG1 fused in-frame to L10 linker and a monomer of Kv1.3 inhibitor peptide ShK[1-35]
enzyme-immunoassay response on fixed Kv1.3 transfected cells [7]: dose-dependent increase in response
inhibition of IL-2 production [8]: complete inhibition
inhibition of IFNγ production [9]: complete inhibition
staining of cells [10]: stains HEK 293 cells stably transfected with human Kv1.3
inhibition of IL-2 production [11]: nearly complete inhibition
inhibition of IFNg production [12]: nearly complete inhibition
thapsigargin-induced upregulation of the IL-2R on T cells [13]: suppressed
inhibition of T cell proliferation [14]: potently inhibits proliferation of T cells in a dose-dependent manner
thapsigargin-induced upregulation of CD40L on T cells [15]: suppressed

IbTx: BKCa channel inhibitor iberiotoxin, purchased from Bachem (QFTDVDCSVSKECWSVCKDLFGVDRGKCMGKKCRCYQ; Definition of Artificial Sequence: Synthetic peptide) [reference compound]
thapsigargin-induced IFN-g production in human whole blood [1]: no significant activity
thapsigargin-induced IL-2 production in human whole blood [3]: no significant activity
thapsigargin-induced upregulation of the IL-2R on T cells [13]: no significant activity
thapsigargin-induced upregulation of CD40L on T cells [15]: no significant activity
